# Like-named read-outs stand apart in the source and are kept apart here.
# Columns and labels:
# [1] = tested on: Leptosphaeria nodorum (LEPTNO); assay: In vitro fungitoxicity of hydrazones with and without copper towards Leptosphaeria nodorum (Example 26); assay type: cell-based; conditions: 72 h at 25° C.; for inhibition of growth at 0.05 µg/mL: Parastagonospora nodorum, 72 h, copper-minus medium, read-out: LEPTNO % Inhn. Minus Copper Observed
# Phytophthora infestans = assay type: in vivo, Phytophthora infestans on tomato; conditions: applied 24 h before inoculation, assessed 7 days after inoculation
# Phytophthora capsici = assay: In vitro fungitoxicity of hydrazones with and without copper towards Phytophthora capsici (Example 28, Table 3); assay type: cell-based; conditions: 0.050 μg/mL, 48 h; for % Inhn Plus copper Observed: copper-plus AS medium (CuCl2, 50 μM); for inhibition of growth at 0.05 µg/mL: Phytophthora capsici, copper-minus AS medium, read-out: % Inhn Minus copper Observed
# Ustilago maydis = assay: In vitro fungitoxicity of hydrazones with and without copper towards Ustilago maydis (Example 29, Table 4); assay type: cell-based; conditions: 1 μg/mL, 48 h; for % Inhn. Plus copper Observed: copper-plus medium (CuCl2, 10 μM); for inhibition of growth at 1 µg/mL: Mycosarcoma maydis, copper-minus medium, read-out: % Inhn. Minus copper Observed
# [2] = tested on: Septoria tritici isolate USA-184; assay: In vitro fungitoxicity of hydrazones with and without copper towards Septoria tritici (Example 30, Table 5); assay type: cell-based; conditions: Zymoseptoria tritici, 0.05 μg/mL
# [3] = tested on: Leptosphaeria nodorum (LEPTNO); assay: Isolated metal-hydrazone complexes versus parent hydrazones, in vitro, Leptosphaeria nodorum (Example 31, Table 7); assay type: cell-based; conditions: Parastagonospora nodorum; 0.1 μg/mL; copper-minus medium; 72 h
# [4] = compound 0.05 μg/mL, copper-plus medium (CuCl2.2H2O)
# [5] = hydrazone 50 ppm + 50 μM CuCl2.2H2O, tomato
# [6] = Colby formula, CuCl2, read-out: % Inhibition Plus copper Predicted
# [7] = copper-minus medium, 90 h, read-out: % Inhibition Minus copper Observed
# [8] = copper-plus medium CuCl2, 90 h, read-out: % Inhibition Plus copper Observed
# [9] = test compound Concn. 0.05 μg/mL
# [10] = copper-plus medium (CuCl2 10 μM), test compound Concn. 0.05 μg/mL
# [11] = hydrazone 50 ppm with 50 μM CuCl2.2H2O, tomato late blight
Structure (SMILES),inhibition of growth at 0.05 µg/mL ([1]; compound 0.05 μg/mL),"LEPTNO % Inhn. Plus Copper Observed [1, 4]",TLB % Control (Phytophthora infestans; [5]),% Inhn Plus copper Observed (Phytophthora capsici),inhibition of growth at 0.05 µg/mL (Phytophthora capsici),% Inhn. Plus copper Observed (Ustilago maydis),inhibition of growth at 1 µg/mL (Ustilago maydis),"inhibition at 0.05 µg/mL [2, 6]","inhibition at 0.05 µg/mL [2, 7]","inhibition at 0.05 µg/mL [2, 8]",melting point,inhibition at 0.1 µg/mL [3],"inhibition of growth at 0.05 µg/mL [1, 9]","LEPTNO % Inhn. Plus Copper Observed [1, 10]",TLB % Control (Phytophthora infestans; [11])
O=C(N/N=C/c1cc(C(F)(F)F)cc(Cl)c1O)c1ccccc1 [Example 275],0%,98.4%,79.7%,91.2%,0%,92.2%,0%,16.2%,16.2%,93.5%,216 to 222 °C,–,–,–,–
C/C(=N\NC(=O)c1cccc(C)c1)c1cc(Cl)cc(Cl)c1O [Example 278],1.7%,97.7%,90.0%,–,–,–,–,–,–,–,221 to 223 °C,16.2%,–,–,–
C/C(=N\NC(=O)c1ccc(C)cc1)c1cc(Cl)cc(Cl)c1O [Example 279],5.1%,98.6%,96.0%,–,–,–,–,–,–,–,262 to 264 °C,19.9%,–,–,–
O=C(N/N=C/c1cccc(C(F)(F)F)c1O)c1ccccc1O [Example 351],–,–,–,87.9%,0%,97.7%,27.1%,44.4%,44.4%,97.1%,230 to 234 °C,–,7.7%,96.1%,100.0%
Cc1ccc(C(=O)N/N=C/c2ccc(Cl)c(Cl)c2O)c(O)c1 [Example 364],–,–,–,23.2%,0%,92.9%,65.5%,22.4%,22.4%,93.7%,271 to 278 °C,–,8.4%,95.8%,97.0%
O=C(N/N=C/c1c(Cl)ccc(Cl)c1O)c1cccc(Cl)c1 [Example 369],–,–,–,44.5%,0%,93.6%,3.1%,9.3%,9.3%,93.2%,232 to 234 °C,–,7%,95.5%,98.0%
O=C(N/N=C/c1cc(Cl)cc(C(F)(F)F)c1O)c1ccccc1O [Example 384],–,–,–,71.1%,0%,96.6%,13.6%,57.5%,57.5%,97%,258 to 260 °C,–,28.6%,95.8%,100.0%
O=C(N/N=C/c1ccc(Cl)cc1O)c1ccc(Cl)cc1 [Example 392],–,–,–,–,–,–,–,–,–,–,–,22.8%,15.8%,97.9%,46.0%
O=C(N/N=C/c1c(O)cccc1Cl)c1ccc([N+](=O)[O-])cc1 [Example 405],–,–,–,85.9%,0.6%,90.0%,9.6%,18.8%,18.8%,89.9%,> 300 °C,–,2.8%,96.2%,98.0%
O=C(N/N=C/c1cccc(Cl)c1O)c1cccc(Cl)c1 [Example 427],–,–,–,88.6%,9.1%,89.3%,34.3%,43.8%,43.8%,96.7%,174 to 178 °C,–,26.1%,97.9%,98.0%
O=C(N/N=C/c1cc(C(F)(F)F)ccc1O)c1ccccc1O [Example 443],–,–,–,91.2%,2.4%,35.3%,10.2%,5.8%,5.8%,92%,277 to 281 °C,–,14.6%,100.0%,83.0%
O=C(N/N=C/c1c(C(F)(F)F)ccc(Cl)c1O)c1ccccc1O [Example 455],–,–,–,30.8%,0%,96.0%,0%,27.5%,27.5%,92.4%,278 to 280 °C,–,16.7%,100.0%,100.0%
C/C(=N\NC(=O)c1ccc(Cl)cc1)c1cc(F)cc(F)c1O [Example 578],–,–,–,90.4%,2.8%,93.8%,47.4%,26.7%,26.7%,90.7%,276 to 280 °C,–,7.2%,98.0%,100.0%

# Source: patent publication US20120010075A1 (priority 2009, published 2012)
